Where a name gives a salt, the structure may show the parent alone.

One test has as its target T1, aromatase (Rattus norvegicus, UniProt P22443).
T1 construct: In the rat, estradiol is physiologically synthesized to high circulating levels; from tissue; host or cells: whole animal: adult female Wistar rats (endogenous aromatase)
T1 sequence (P22443 1-508): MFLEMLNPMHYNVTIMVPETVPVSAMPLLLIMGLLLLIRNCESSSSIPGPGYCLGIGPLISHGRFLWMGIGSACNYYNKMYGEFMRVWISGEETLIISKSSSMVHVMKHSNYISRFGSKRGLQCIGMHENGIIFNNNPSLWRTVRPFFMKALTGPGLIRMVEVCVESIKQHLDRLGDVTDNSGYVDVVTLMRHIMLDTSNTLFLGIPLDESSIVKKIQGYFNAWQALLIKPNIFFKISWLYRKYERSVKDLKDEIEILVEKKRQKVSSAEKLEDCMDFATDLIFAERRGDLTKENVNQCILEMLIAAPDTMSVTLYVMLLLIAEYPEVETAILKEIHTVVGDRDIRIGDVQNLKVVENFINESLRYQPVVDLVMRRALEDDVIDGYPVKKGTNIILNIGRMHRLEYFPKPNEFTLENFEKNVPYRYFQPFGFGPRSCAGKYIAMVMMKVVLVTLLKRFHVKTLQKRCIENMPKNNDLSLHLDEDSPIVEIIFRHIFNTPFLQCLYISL
In words: Inhibition of aromatase in vivo (inhibition of the preovulatory surge of plasma estradiol levels). The following applies: adult female Wistar rats, single oral administration of 10 micrograms/kg on diestrus, plasma estradiol 24 hours later, vs vehicle controls, n = number of independent studies; for inhibition at 0.01 mg/kg: rat, read-out: % inhibition at 10 µg/kg. From the text: Aromatase is the steroidogenic enzyme responsible for the biosynthesis of estradiol, the main female sex hormone among estrogens. In the rat, estradiol is physiologically synthesized to high circulating levels in a particular period during the 4-day estrous cycle : it is the so-called preovulatory surge taking place in the afternoon of proestrus, just before ovulation which occurs during the night between proestrous and estrous phases. A sensitive physiological model for in vivo evaluation of aromatase inhibition was developped based on the inhibition of this preovulatory surge of estradiol levels.
Adult female Wistar rats are monitored for regular 4-day estrous cyclicity by daily vaginal smear examination; after 2 or 3 regular cycles, animals are treated by a single oral administration of the very low discriminative dose of 10 micrograms/kg in a 4 ml/kg volume around 04:00 PM on diestrus, i.e. on the day before proestrus. Precisely 24 hours later, aortic blood samples are drawn under gaseous anesthesia. Plasma estradiol levels are measured by radioimmunoassay with commercially available kits (Diagnostic Systems Laboratories, Webster, Texas, U. S. A.). Control and test groups usually consist of 7 to 10 rats, depending on the number of regularly cycling rats to distribute among study groups. Results are expressed in pg/ml and then in % of inhibition taking the estradiol levels of control animals receiving only the oral vehicle as the 100 % reference to allow comparisons between different independent studies, since the preovulatory surge level may vary in each control group from one study to another between about 25 to 40 pg/ml. Table B : Inhibition of aromatase in vivo

A further test addresses T2, human aromatase (Homo sapiens, UniProt P11511).
T2 construct: The JEG-3 cell line, derived from a human placental choriocarcinoma, is intrinsically very rich in human aromatase; endogenous in cells; host or cells: JEG-3 (human placental choriocarcinoma)
T2 sequence (P11511 1-503): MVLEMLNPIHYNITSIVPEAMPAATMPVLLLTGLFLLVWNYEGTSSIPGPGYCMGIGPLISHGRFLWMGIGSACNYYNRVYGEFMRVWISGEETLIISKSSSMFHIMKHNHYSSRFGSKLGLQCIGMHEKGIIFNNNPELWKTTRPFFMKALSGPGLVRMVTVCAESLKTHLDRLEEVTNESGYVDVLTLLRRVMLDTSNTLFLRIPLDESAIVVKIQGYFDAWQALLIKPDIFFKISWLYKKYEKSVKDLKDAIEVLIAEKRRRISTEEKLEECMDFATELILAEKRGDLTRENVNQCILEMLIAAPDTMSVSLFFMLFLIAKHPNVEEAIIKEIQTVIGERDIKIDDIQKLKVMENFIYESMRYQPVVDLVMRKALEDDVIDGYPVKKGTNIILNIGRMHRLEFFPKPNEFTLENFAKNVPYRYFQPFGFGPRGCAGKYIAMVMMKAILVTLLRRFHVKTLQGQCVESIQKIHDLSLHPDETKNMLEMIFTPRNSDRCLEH
Put plainly: Inhibition of human aromatase in vitro in JEG-3 cells (3H-water release from 1β-3H-androstenedione). The following applies: JEG-3 cell line; 1β-3H-androstenedione 10 nM; 2 hours incubation; mean ± sem. It counts as cell-based.

Method for human aromatase: Stocks of JEG-3 cells are grown up to 80 % of confluence as monolayers in plastic flasks in minimum Eagle's medium with 1 g/l glucose and 10 % decomplemented fetal calf serum at pH 7.4 and 37° C, under a 5 % CO2 atmosphere. Then, 24 hours before aromatase activity measurement, JEG-3 cells are distributed for seeding in 96-well microplates (60,000 to 100,000 viable cells in 100 µl of culture medium per well) ; 24 hours later, microplates are rinsed and fresh medium containing the radioactive aromatase substrate (1β-^3H-androstenedione, 10 nM) is added together with test compounds dissolved with 1 % dimethylsulfoxide in a test concentration range between 10^-11 and 10^-4 M in a total volume of 150 µl.
Two hours after the beginning of the incubation, 100 µl of the supernatants are transferred to homologous new 96-well microplates. A solution of dextran-coated charcoal (1 %) is added in each well (100 µl/well) ; after standing for 10 minutes on ice, microplates are centrifuged (1500 g) for 10 more minutes at 4° C. All steroids, including the radioactive substrate and the newly biosynthesized estrogens, are trapped complexed by the charcoal ; only ^3H-water specifically formed during aromatisation of 1β-^3H-androstenedione, involving a specific oxidative step removing the 1β-^3H, remains in the supernatant at this stage. […]

On to `CC(C)(C#N)c1cc(Cn2cncn2)cc(C(C)(C)C#N)c1` [Anastrozole, anastrozole, reference compound], for which the inhibition at 0.01 mg/kg at aromatase is 18 to 33%. In the case of `N#Cc1ccc(N(Cc2ccc(C(F)(F)F)cc2)n2ccnc2)cc1` [Example 6, 4-[N-(1H-imidazol-1-yl)-N-(4-trifluoromethylphenylmethyl)amino]-benzonitrile], the inhibition at 0.01 mg/kg at aromatase was determined as 57%. On to `N#Cc1ccc(N(Cc2ccc(Cl)cc2)n2ccnc2)cc1` [Example 7, 4-[N-(1H-imidazol-1-yl)-N-(4-chlorophenylmethyl)amino]benzonitrile, hydrochloride], for which the inhibition at 0.01 mg/kg on aromatase turned out to be 47%. On to `N#Cc1ccc(CN(c2ccc(C#N)cc2)n2ccnc2)cc1` [Example 11, 4-[N-(1H-imidazol-1-yl)-N-(4-cyanophenylmethyl)amino]benzonitrile, hydrochloride], for which, at aromatase, the inhibition at 0.01 mg/kg is 57 to 59%. On the same count and under the same terms, next, `N#Cc1ccc(N(Cc2ccc(F)cc2)n2ccnc2)cc1` [Example 14, 4-[N-(1H-imidazol-1-yl)-N-(4-fluorophenylmethyl)amino]benzonitrile, hydrochloride hemihydrate]: 49 to 57%; `N#Cc1ccc(N(Cc2ccc(F)c(F)c2)n2ccnc2)cc1` [Example 17, 4-[N-(1H-imidazol-l-yl)-N-(3,4-difluorophenylmethyl)amino]benzonitrile]: 60%.

As to `N#Cc1ccc(N(Cc2ccc(Br)cc2)n2cnnc2)cc1` [YM 511, reference compound], on aromatase, the % inhibition (in general, the drop in the measured response relative to a control, in per cent) at 10 µg/kg turned out to be 35%. Besides, 0.3 ± 0.04 nM corresponded to half-maximal inhibition on human aromatase (IC50).
